Consider 5 molecules from ChEMBL document CHEMBL1201862, “PubChem BioAssay data set” (2004).

The target of one test is T1, Protein RecA (Mycobacterium tuberculosis, UniProt P9WHJ3).
T1 sequence (P9WHJ3 whole entry): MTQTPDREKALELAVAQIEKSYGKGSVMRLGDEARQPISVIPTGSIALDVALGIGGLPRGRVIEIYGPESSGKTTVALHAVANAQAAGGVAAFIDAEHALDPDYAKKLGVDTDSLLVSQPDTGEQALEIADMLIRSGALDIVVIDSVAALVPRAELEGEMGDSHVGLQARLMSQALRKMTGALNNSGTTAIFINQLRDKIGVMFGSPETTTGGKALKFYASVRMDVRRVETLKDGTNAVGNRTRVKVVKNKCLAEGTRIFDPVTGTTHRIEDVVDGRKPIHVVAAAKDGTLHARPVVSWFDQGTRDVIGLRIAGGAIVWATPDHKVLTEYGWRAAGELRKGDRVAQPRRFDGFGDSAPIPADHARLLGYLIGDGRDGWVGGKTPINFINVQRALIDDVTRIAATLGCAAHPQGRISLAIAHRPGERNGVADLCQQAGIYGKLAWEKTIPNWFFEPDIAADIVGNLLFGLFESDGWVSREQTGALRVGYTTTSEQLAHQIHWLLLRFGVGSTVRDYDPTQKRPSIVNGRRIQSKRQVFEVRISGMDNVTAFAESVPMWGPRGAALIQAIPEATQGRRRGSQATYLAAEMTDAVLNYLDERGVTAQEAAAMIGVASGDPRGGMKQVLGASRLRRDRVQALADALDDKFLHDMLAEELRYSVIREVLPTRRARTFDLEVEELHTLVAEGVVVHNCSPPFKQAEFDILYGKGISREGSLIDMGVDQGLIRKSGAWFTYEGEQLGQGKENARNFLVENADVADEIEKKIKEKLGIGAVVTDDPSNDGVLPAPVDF
Put plainly: Fluorescence Cell-Free Homogeneous Dose Retest to Identify Inhibitors of RecA-Intein Splicing Activity. [Related pubchem assays (depositor defined):AID2097, AID2223, AID489010, AID492950]. Format: functional.

The nature of test [1]: Intein inhibitors as potential Tuberculosis drugs, a cytotoxicity screen. [Related pubchem assays (depositor defined):AID2221, AID2223, AID434968, AID435010, AID449749, AID449750, AID489010]. The class given is functional.
The subject of the next test is CHO. As to the kind of experiment: cytotoxicity in TLR9-MyD88 CHO cells, dose response, cytotoxicity control for TLR9-MyD88 binding inhibitor project, cell-based, luminescence (AID 588339).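 Further: CHO cells stably coexpressing TLR9 and MyD88 fusions from primary screen; compound exposure lasted 48 hours before viability readout.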 Format: functional, hamster. The conditions noted are these: Cricetulus griseus.
A further test has as its system CHO-K1. As to the kind of experiment: Counterscreen for antagonists of the orexin 1 receptor (OX1R; HCRTR1): Homogeneous time resolved fluorescence (HTRF)-based cell-based dose response assay to identify antagonists of the parental CHO-K1 cell line. [Related pubchem assays (depositor defined):AID434989, AID435008, AID463079, AID485270, AID492963, AID492964, AID492965, AID493232, AID504699, AID504701]. Format: functional. The conditions noted are these: Cricetulus griseus.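 Further: potency for inhibition of ATP-stimulated IP1 production as antagonists.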

The target in test [2] is T2, Ubiquitin-conjugating enzyme E2 N (Homo sapiens, UniProt P61088).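 Further: Dose-response confirmation in a TR-FRET assay detecting UBC13-driven polyubiquitin chain formation, inhibition measured.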
T2 sequence (P61088 whole entry): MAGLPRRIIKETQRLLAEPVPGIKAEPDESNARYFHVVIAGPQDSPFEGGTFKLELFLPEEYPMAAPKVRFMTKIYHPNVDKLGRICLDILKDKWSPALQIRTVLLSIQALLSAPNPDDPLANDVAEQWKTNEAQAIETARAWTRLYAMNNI
Format: functional.

Test [3] concerns the target T3, Histone-lysine N-methyltransferase NSD2 (Homo sapiens, UniProt O96028).
T3 sequence (O96028 whole entry): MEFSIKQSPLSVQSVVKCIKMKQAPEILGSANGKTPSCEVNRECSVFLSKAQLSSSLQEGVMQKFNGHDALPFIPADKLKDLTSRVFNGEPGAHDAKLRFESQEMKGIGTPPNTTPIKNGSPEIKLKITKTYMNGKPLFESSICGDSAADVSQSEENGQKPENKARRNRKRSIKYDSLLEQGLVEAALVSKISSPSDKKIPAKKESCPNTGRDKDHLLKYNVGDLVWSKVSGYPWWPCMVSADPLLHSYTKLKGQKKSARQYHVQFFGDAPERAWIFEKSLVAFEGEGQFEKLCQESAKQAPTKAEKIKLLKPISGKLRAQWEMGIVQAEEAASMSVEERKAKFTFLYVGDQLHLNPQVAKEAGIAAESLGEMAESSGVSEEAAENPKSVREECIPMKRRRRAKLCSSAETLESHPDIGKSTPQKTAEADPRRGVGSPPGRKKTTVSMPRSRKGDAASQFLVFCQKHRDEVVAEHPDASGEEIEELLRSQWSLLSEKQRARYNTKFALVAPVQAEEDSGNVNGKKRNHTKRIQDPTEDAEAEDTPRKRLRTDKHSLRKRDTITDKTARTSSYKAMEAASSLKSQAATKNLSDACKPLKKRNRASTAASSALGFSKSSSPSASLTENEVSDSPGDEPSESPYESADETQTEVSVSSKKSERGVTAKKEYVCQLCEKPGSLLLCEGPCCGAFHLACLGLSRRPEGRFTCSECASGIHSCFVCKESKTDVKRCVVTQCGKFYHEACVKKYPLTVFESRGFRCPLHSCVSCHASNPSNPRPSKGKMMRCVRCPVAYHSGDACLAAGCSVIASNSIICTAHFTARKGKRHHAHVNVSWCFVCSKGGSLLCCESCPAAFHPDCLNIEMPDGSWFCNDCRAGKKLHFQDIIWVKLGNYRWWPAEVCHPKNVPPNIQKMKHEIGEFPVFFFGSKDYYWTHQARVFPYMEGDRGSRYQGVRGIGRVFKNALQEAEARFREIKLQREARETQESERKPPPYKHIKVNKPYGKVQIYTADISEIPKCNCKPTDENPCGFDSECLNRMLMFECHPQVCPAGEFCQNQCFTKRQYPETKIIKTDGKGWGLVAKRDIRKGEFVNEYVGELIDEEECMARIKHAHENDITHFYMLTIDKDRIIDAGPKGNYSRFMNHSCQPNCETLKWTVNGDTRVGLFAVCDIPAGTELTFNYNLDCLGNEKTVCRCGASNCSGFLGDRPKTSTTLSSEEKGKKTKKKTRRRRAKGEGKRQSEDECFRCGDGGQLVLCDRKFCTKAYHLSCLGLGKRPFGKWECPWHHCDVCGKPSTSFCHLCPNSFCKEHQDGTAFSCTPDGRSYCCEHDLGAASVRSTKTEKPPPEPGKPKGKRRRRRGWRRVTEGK
Format: biochemical.

In test [4] the target is Protein kinase C theta type (Homo sapiens, UniProt Q04759). Put plainly: Navigating the Kinome. Panel member name: PRKCQ. Format: functional.
Test [5] has as its target Mitogen-activated protein kinase kinase kinase kinase 4 (Homo sapiens, UniProt O95819). The class given is functional.
The target of test [6] is Glycogen synthase kinase-3 alpha (Homo sapiens, UniProt P49840). Format: functional.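 Further: GSK3A result taken from a broad kinome-wide kinase panel.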
The nature of test [7]: inhibitors of clade B AD8 Env fusion, dose response, cell-based, cherry-pick (AID 652062).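 Further: luciferase signal from cell-cell fusion driven by HIV-1 clade B AD8 Env; potency is for inhibitors of fusion seen as a drop in luminescence.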 The class given is functional.

The source made the active and inactive calls.
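Wherever CC50 is given: cells exposed to compound for 72 hours before luminescence readout.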

Chain of Glycogen synthase kinase-3 alpha (P49840 whole entry, the tested form may be a part): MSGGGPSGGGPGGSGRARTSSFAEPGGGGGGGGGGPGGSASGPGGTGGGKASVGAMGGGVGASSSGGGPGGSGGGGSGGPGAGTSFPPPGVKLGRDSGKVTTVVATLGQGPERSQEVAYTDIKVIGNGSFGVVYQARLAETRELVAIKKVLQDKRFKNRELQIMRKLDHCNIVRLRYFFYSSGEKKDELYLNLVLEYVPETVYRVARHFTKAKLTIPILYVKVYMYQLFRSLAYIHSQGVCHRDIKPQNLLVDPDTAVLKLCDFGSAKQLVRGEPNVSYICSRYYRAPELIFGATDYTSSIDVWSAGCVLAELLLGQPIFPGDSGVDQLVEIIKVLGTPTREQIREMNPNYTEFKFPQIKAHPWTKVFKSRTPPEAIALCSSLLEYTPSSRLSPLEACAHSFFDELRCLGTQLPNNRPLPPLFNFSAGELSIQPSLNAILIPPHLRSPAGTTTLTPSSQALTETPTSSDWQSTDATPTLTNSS
Chain of Mitogen-activated protein kinase kinase kinase kinase 4 (O95819 whole entry): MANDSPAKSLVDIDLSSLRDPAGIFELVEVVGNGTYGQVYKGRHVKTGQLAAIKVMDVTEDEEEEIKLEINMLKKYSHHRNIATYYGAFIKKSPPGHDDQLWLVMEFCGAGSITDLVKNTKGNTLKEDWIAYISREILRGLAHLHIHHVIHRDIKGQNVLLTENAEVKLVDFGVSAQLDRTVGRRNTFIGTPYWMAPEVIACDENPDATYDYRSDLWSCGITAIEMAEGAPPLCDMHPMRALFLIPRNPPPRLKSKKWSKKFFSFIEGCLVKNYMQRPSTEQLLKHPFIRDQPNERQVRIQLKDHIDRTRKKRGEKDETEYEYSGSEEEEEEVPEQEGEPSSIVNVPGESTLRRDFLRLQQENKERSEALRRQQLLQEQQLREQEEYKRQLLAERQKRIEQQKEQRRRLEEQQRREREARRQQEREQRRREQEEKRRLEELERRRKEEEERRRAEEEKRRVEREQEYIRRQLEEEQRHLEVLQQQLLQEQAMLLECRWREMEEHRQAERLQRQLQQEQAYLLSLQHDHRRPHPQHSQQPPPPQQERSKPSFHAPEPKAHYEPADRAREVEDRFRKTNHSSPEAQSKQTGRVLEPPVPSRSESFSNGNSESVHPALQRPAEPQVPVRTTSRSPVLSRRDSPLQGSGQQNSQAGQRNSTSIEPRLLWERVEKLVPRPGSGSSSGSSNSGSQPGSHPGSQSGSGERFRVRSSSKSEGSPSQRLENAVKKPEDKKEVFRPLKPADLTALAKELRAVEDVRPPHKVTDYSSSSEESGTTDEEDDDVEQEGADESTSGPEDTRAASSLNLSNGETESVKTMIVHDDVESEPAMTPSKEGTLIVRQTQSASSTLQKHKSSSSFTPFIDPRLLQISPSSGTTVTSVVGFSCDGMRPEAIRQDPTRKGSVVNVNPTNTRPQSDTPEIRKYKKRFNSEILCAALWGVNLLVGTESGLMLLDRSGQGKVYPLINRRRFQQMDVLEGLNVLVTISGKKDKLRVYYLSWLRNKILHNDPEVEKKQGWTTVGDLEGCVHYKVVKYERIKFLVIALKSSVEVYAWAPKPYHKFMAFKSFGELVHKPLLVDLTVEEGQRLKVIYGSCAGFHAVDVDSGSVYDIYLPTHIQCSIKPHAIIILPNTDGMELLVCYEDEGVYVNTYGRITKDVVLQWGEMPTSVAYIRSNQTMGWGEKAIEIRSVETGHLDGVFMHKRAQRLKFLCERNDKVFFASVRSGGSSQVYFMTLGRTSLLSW
Chain of Protein kinase C theta type (Q04759 whole entry): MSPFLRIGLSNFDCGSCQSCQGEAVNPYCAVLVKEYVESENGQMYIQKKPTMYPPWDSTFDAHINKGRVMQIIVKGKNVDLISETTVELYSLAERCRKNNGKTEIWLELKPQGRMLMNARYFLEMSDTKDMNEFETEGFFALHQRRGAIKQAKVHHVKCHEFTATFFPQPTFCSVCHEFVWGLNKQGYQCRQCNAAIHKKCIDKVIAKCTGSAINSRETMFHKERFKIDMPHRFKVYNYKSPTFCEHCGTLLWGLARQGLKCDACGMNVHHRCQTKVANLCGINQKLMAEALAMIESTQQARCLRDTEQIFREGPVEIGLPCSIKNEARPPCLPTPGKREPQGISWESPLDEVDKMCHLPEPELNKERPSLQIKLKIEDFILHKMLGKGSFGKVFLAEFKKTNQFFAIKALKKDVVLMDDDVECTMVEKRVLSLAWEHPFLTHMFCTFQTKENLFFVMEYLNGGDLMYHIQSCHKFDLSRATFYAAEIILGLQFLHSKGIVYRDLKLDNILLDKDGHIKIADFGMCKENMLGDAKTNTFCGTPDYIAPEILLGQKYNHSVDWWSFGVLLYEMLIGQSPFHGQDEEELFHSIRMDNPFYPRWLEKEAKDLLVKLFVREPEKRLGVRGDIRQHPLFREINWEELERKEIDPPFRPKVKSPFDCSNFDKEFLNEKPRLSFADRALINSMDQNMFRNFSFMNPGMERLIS

By EC50 is commonly meant the concentration giving half of the maximal effect. By CC50 is commonly meant the concentration giving 50% cytotoxicity. By IC50 is commonly meant the point on the concentration scale where inhibition reaches its midpoint. On to `Cc1ccc(C(=O)OCn2ncc(Cl)c(Cl)c2=O)cc1`, for which the concentration for a half-maximal effect (EC50) at Protein RecA is 0.924 µM (active). Besides, the CC50 in [1] was 2.85 µM (active). Further, the figures for the IC50 in the test with CHO and in the test on CHO-K1 were 1.53 µM (active) and > 66.2 µM (inactive), respectively.

Broadly, the AC50 is the concentration at which the activity in the assay is half-maximal. On to `O=C(O)CC(C(=O)O)N1C(=O)/C(=C/C=C/c2ccco2)SC1=S` (stereo not given), for which, in test [2], the IC50 is > 20 µM (inactive). Also, in test [3], the half-maximal activity concentration (AC50) was 4.16 µM (active).

The term Ki denotes a dissociation constant, usually derived from enzyme kinetics or from competition with a known ligand. For the molecule `O=C(Nc1cccc(C2Nc3ccc4ccccc4c3C3C=CCC32)c1)c1ccc(F)cc1` (stereo not given), the Ki in test [4] is 1 µM (active); in [5], > 5.01 µM (inactive).

Regarding `Cc1ccc(-c2cc(-c3cc(Br)ccc3O)[nH]c(=O)c2C#N)s1`, the Ki in test [6] was 1.58 µM (active).

Take `CCCC(=O)NC(c1cccs1)c1cc(Cl)c2cccnc2c1O` (stereo not given): the AC50 in test [7] is 6.73 µM (active).
